For one substance, blood glucose levels results are on record in patent US20230263956A1, “INGESTIBLE DRUG DELIVERY DEVICE” (Massachusetts Institute of Technology, priority 2020, published 2023).

A short description of this test: In vivo testing: tethered device jetting insulin into the stomach wall. More on the design: species or system Yorkshire pigs. As to conditions: jet of insulin into stomach wall, 0.5 Units per kilogram, three of the five device tests, samples until two hours after deployment. How it is done: Studies were performed by trained veterinary technicians at MIT's animal testing facilities. Yorkshire pigs weighing between 70 and 90 kg were used. All studies were terminal studies (meaning the animal was euthanized immediately afterward). […] The testing protocol is described further below.
This formulation procedure was carried out the morning or evening before each in vivo study, and the resulting solution it was stored at 4° C. until the time of administration.
The device was loaded with API and CO2 in the operating room where the animal was sedated and intubated. The device was deployed either by direct placement into the stomach through a laparotomy, or via an over-tube with an endoscope and snare. Of the five deployments performed with this device, the first three were performed by laparotomy, and the latter two by endoscope. Triggering generally occurred within 15 minutes and could be identified through recoil and minor foaming near the base of the device.
Blood samples were collected by ear catheter or femoral catheter. […] The blood-glucose level was monitored at each draw using commercial glucose monitoring strips. […] The samples were then subsequently analyzed with a custom Ezyme-linked immunosorbent assay (ELISA) for […].

As to insulin, the blood glucose levels result is recorded as “drop in blood glucose levels”.
